How the values were obtained:
Gαs-GFP [1] = format: cell-based
β-adrenergic receptor = assay: cell-based or functional assay
Gαs-GFP [2] = format: cell-based; remark: listed apart in the source
[3] = living cells transfected with Gαs-GFP

CC(C)NCC(O)c1ccc(O)c(O)c1 (centres unmarked) [isoproterenol]
cells showing internalized Gαs-GFP in response to isoproterenol (Gαs-GFP [1]; isoproterenol 20 μM, COS cells, 37° C., 58 cells in 15 experiments): Approximately 70%
release of Gαs-GFP from plasma membrane into the cytoplasm (Gαs-GFP [1]; [3]): rapid partial release of Gαs-GFP into the cytoplasm
time after treatment at which extent of Gαs-GFP release from plasma membrane was maximal (Gαs-GFP [1]; [3]): 1 min

Gαs-GFP fusion protein (GFP inserted within the internal amino acid sequence of long Gαs)
percent of cells with internalized Gαs-GFP in response to isoproterenol (20 µM) (β-adrenergic receptor): 70%

cholera toxin
displacement of Gαs-GFP from the plasma membrane (Gαs-GFP [2]): gradual displacement of Gαs-GFP from the plasma membrane throughout the cytoplasm

From patent US20120142015A1, “GFP FUSION PROTEINS AND THEIR USE” (The Board of Trustees of The University of Illinois, priority 2001, published 2012)
